Measured values: patent US11357778B2, “Antagonist of the fibroblast growth factor receptor 3 (FGFR3) for use in the treatment or the prevention of skeletal disorders linked with abnormal activation of FGFR3” (INSTITUT NATIONAL DE LA SANTE ET DE LE RECHERCHE MEDICALE …, priority 2011, dated 2022)

Tests used:
[1] = system: FGFR3^Y373C transfected NIH3T3 cells; test: [3H]-thymidine incorporation in NIH3T3 cells expressing FGFR3^Y373C; format: cell-based, mouse; conditions: A31 2 mM
Experimental: (§1) NIH-3T3 clones stably expressing FGFR3^+/+ (WT) and FGFR3^Y373C, FGFR3K650M (human constructs) were used. The stable clones were selected with G418. NIH-3T3 clones were incubated for 8 h in 10% newborn calf serum DMEM supplemented or not with A31 (2 mM). [3H] thymidine was added at a concentration of […] and incubated for 16 hours. The cells were harvested on glass fiber filter paper and assayed for radioactivity by liquid scintillation counting. The inventors used Top Count Microplates scintillation counter (Perkin Elmer).
(§2) To determine whether A31 modulates the mitogenic activity of activated FGFR3, the inventors measured [3H]-thymidine incorporation in FGFR3^Y373C and FGFR3^K650M transfected NIH3T3 cells. The mitogenic activity was increased in cells expressing FGFR3 mutations compared to WT (FGFR3^Y373C, 9927±2921 cpm; FGFR3^K650M, 15048±5251 cpm; WT, 7499±1667 cpm; p<10^−5 versus WT).

[2] = system: FGFR3^K650M transfected NIH3T3 cells; test: [3H]-thymidine incorporation in NIH3T3 cells expressing FGFR3^K650M; format: cell-based, mouse; conditions: A31 2 mM
Experimental: as §1, §2

Fgfr3^Y367C/+ femurs = test: Ex vivo culture of E16.5 embryonic femur explants, bone length; format: cell-based, mouse
Experimental: (§3) Six sets of ex vivo experiments were performed. Femur embryos at day E16.5 from WT (n=6) and Fgfr3^Y367C/+ (n=6) mice were used and incubated for 5 days in DMEM medium with antibiotics and 0.2% BSA (Sigma) supplemented with A31 or PD173074 (as control) at a concentration of 2 mM. Right femur was cultured in supplemented medium and compared with the left one cultured in control medium. Rib cage from E16.5 WT and Fgfr3^Y367C/+ mice embryos were isolated and stripped of all soft tissues. Primary chondrocytes were obtained from rib cages. The ribs were incubated in a pronase solution (Roche; 2 mg/ml) followed by a digestion in Collagenase A (Roche; 3 mg/ml) at 37° C. Isolated chondrocytes were plated out at a density of 2.105 cells in 6-well plates containing DMEM supplemented with 10% FCS and antibiotics, and were allowed to reach subconfluency. Cultures were supplemented with A31 or PD173074 (as control) at a concentration of 2 mM. Cells were treated with A31 (2 mM) PD173074 (as control) in serum-free DMEM supplemented with 0.2% BSA and harvested after 24 h. To establish the effect of the inhibitors, the right femur was cultured in supplemented medium and compared with the left one cultured in control medium The bone length was measured at the beginning (before treatment) and at the end of time course. Each experiment was repeated at least three times. The genotype of WT, Fgfr3^Y367C/+ and Fgfr3^−/− mice were determined by PCR of tail DNA as previously described (Pannier et al., Biochim Biophys Acta, 1792: 140-147, 2009). All experimental procedures and protocols were approved by the Animal Care and Use Committee.
Fgfr3^Y367C/+ mice display reduced length of long bones, broad femurs, a narrow trunk, short ribs and a slightly dome-shaped skull, closely resembling achondroplasia (FIGS. 3A and B). The inventors analyzed the effects of A31 on endochondral ossification in Fgfr3^Y367C/+ mice by using an ex vivo culture system for embryonic day 16.5 (E16.5) limb explants. […] After 5 days of culture, the increase in length of the treated mutant femurs was 2.6 times more than for that of WT.
Thus, embryonic femur explants were co-incubated with 150 nM of PD173074 for 5 days.
Embryonic femur explants were co-incubated 100 nM (10^−7M) or 1 μM (10^−6M) of BGJ-398 for 6 days.

cyclin D1 = test: Cyclin D1 immunoblot in costal primary chondrocytes from E16.5 ribs; format: cell-based, mouse; conditions: A31-treated murine chondrocytes vs untreated
Experimental: as §3, with “Isolated chondrocytes were plated out at a density of 2.105 cells in 6-well plates containing DMEM supplemented with 10% FCS and antibiotics, and were allowed to reach subconfluency. Cultures were supplemented with A31 or PD173074 (as control) at a concentration of 2 mM. Cells were treated with A31 (2 mM) PD173074 (as control) in serum-free DMEM supplemented with 0.2% BSA and harvested after 24 h.” left out, “Each experiment was repeated at least three times.” left out, “All experimental procedures and protocols were approved by the Animal Care and Use Committee.” left out
Immunoprecipitation were performed by incubating […] rabbit anti-FGFR3 (Sigma)/[…] protein with protein A-agarose (Roche). […] Bound proteins were detected by chemiluminescence (ECL, Amersham). The blots were rehybrididized with an antipan-actin antibody for quantification (Millipore). […]

FGFR3 = FGFR3 (Homo sapiens, UniProt P22607); conditions: read-out: IC50 for inhibition of autophosphorylation of FGFR3; cited from earlier work
Sequence of FGFR3 (P22607 23-806): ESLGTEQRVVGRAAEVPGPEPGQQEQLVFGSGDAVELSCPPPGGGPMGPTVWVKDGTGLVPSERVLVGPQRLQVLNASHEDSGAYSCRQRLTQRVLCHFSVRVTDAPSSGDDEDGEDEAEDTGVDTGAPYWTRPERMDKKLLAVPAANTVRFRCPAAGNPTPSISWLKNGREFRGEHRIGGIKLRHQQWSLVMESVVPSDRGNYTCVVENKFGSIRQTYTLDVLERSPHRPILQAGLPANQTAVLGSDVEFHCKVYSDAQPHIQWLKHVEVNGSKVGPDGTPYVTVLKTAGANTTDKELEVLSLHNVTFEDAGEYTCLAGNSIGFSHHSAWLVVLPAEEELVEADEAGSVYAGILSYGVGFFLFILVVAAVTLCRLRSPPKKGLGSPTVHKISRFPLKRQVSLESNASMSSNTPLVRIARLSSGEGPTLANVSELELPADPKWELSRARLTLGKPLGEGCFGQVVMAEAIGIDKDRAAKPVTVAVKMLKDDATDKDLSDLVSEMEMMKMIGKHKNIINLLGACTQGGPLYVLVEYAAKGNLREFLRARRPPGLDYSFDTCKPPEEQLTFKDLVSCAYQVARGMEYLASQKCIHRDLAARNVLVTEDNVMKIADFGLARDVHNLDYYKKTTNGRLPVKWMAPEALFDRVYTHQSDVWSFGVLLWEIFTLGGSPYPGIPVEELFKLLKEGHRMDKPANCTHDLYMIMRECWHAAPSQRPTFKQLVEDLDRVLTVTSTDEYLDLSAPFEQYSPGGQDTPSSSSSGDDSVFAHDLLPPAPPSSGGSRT

## COc1cc(OC)cc(-c2cc3cnc(NCc4cn(CC5CCCN(C)C5)nn4)nc3nc2NC(=O)NC(C)(C)C)c1 (stereo not shown) [Compound A31]
[1]
  [3H]-thymidine incorporation (DNA synthesis): 3144±1201 cpm
[2]
  [3H]-thymidine incorporation (DNA synthesis): 6281±2699 cpm
Fgfr3^Y367C/+ femurs; A31 2 mM, 5 days
  limb growth in Fgfr3^Y367C/+ femurs (in words): fully restore limb growth
Fgfr3^Y367C/+ femurs; A31 2 mM, 5 days of culture, Fgfr3^Y367C/+ femurs
  longitudinal bone growth (gain in femur length): 1880±558 μm
Fgfr3^Y367C/+ femurs; A31, after 5 days of culture
  increase in length of treated mutant femurs relative to WT: 2.6 times
Cyclin D1
  cyclin D1 level (Western blot): reduced level of cyclin D1
FGFR3
  IC50: ~0.19 µM
